PubChem BioAssay AID1259407 (Chemical Carcinogenesis Research Information System (CCRIS), 2018)
Calls of active or inactive are those of the source. How the calls were made is not given here.

System: CCRIS mutagenicity, Ames/micronucleus/aberration tests
Assay: CCRIS mutagenicity studies
[1] = Test System: AMES SALMONELLA TYPHIMURIUM, Strain/Indicator: TA98, Metabolic Activation: NONE, Method: STANDARD PLATE
[2] = Test System: AMES SALMONELLA TYPHIMURIUM, Strain/Indicator: TA98, Metabolic Activation: RAT, LIVER, S-9, AROCLOR 1254, Method: STANDARD PLATE
[3] = Test System: AMES SALMONELLA TYPHIMURIUM, Strain/Indicator: TA100, Metabolic Activation: NONE, Method: STANDARD PLATE
[4] = Test System: AMES SALMONELLA TYPHIMURIUM, Strain/Indicator: TA100, Metabolic Activation: RAT, LIVER, S-9, AROCLOR 1254, Method: STANDARD PLATE
[5] = Test System: AMES SALMONELLA TYPHIMURIUM, Strain/Indicator: TA1535, Metabolic Activation: NONE, Method: STANDARD PLATE
[6] = Test System: AMES SALMONELLA TYPHIMURIUM, Strain/Indicator: TA1535, Metabolic Activation: RAT, LIVER, S-9, AROCLOR 1254, Method: STANDARD PLATE
[7] = Test System: AMES SALMONELLA TYPHIMURIUM, Strain/Indicator: TA1537, Metabolic Activation: NONE, Method: STANDARD PLATE
[8] = Test System: AMES SALMONELLA TYPHIMURIUM, Strain/Indicator: TA1537, Metabolic Activation: RAT, LIVER, S-9, AROCLOR 1254, Method: STANDARD PLATE
[9] = Test System: E. COLI, Strain/Indicator: WP2 UVRA, Metabolic Activation: NONE, Method: STANDARD PLATE
[10] = Test System: E. COLI, Strain/Indicator: WP2 UVRA, Metabolic Activation: RAT, LIVER, S-9, AROCLOR 1254, Method: STANDARD PLATE
[11] = Test System: AMES SALMONELLA TYPHIMURIUM, Strain/Indicator: TA1538, Metabolic Activation: NONE, Method: STANDARD PLATE
[12] = Test System: AMES SALMONELLA TYPHIMURIUM, Strain/Indicator: TA1538, Metabolic Activation: RAT, LIVER, S-9, AROCLOR 1254, Method: STANDARD PLATE
[13] = Test System: E. COLI, Strain/Indicator: WP2, Metabolic Activation: NONE, Method: STANDARD PLATE
[14] = Test System: E. COLI, Strain/Indicator: WP2, Metabolic Activation: RAT, LIVER, S-9, AROCLOR 1254, Method: STANDARD PLATE

Q: Which results are given for CN(C)C(=O)c1nc2n(n1)-c1ccc(Cl)cc1C(c1ccccc1Cl)=NC2?
A: mutagenic call [1]: inactive; negative; mutagenic call [2]: inactive; negative; mutagenic call [3]: inactive; negative; mutagenic call [4]: inactive; negative; mutagenic call (Test System: AMES SALMONELLA TYPHIMURIUM, Strain/Indicator: TA102, Metabolic Activation: NONE, Method: STANDARD PLATE): inactive; negative; mutagenic call (Test System: AMES SALMONELLA TYPHIMURIUM, Strain/Indicator: TA102, Metabolic Activation: RAT, LIVER, S-9, AROCLOR 1254, Method: STANDARD PLATE): inactive; negative; mutagenic call [5]: inactive; negative; mutagenic call [6]: inactive; negative; mutagenic call [7]: inactive; negative; mutagenic call [8]: inactive; negative; mutagenic call [9]: inactive; negative; mutagenic call [10]: inactive; negative

Q: What does the source list for C/C=C/C1=CC(=O)[C@]23C[C@H]2C(C)(C)O[C@]3(O)C1=O?
A: mutagenic call (Test System: AMES SALMONELLA TYPHIMURIUM, Strain/Indicator: TA97, Metabolic Activation: NONE): active; positive; mutagenic call (Test System: AMES SALMONELLA TYPHIMURIUM, Strain/Indicator: TA98, Metabolic Activation: NONE): inactive; negative; mutagenic call (Test System: AMES SALMONELLA TYPHIMURIUM, Strain/Indicator: TA100, Metabolic Activation: NONE): active; positive; mutagenic call (Test System: AMES SALMONELLA TYPHIMURIUM, Strain/Indicator: TA102, Metabolic Activation: NONE): active; positive

Q: Which results are given for O=C([O-])[C@H](O)[C@@H](O)[C@H](O)[C@H](O)CO.O=C([O-])[C@H](O)[C@@H](O)[C@H](O)[C@H](O)CO.[Mn+2]?
A: mutagenic call [1]: inactive; negative; mutagenic call [2]: inactive; negative; mutagenic call [3]: inactive; negative; mutagenic call [4]: inactive; negative; mutagenic call [5]: inactive; negative; mutagenic call [6]: inactive; negative; mutagenic call [7]: inactive; negative; mutagenic call [8]: inactive; negative; mutagenic call [11]: inactive; negative; mutagenic call [12]: inactive; negative; mutagenic call [13]: inactive; negative; mutagenic call [14]: inactive; negative

Q: With CC/C=C/C=C/C=C/C=C/C=C\OC[C@@H](O)CO as the molecule, how does the mutagenic call (Test System: AMES SALMONELLA TYPHIMURIUM, Strain/Indicator: TA100, Metabolic Activation: NONE, Method: PREINCUBATION) read?
A: active; positive

Q: What about the mutagenic call (Test System: AMES SALMONELLA TYPHIMURIUM, Strain/Indicator: TA100, Metabolic Activation: RAT, LIVER, S-9, AROCLOR 1254, Method: PREINCUBATION) of the same molecule?
A: active; positive

Q: For CCC(C)NC(=O)C=Cc1ccc([N+](=O)[O-])o1 (stereo unspecified), which mutagenic call (Test System: AMES SALMONELLA TYPHIMURIUM, Strain/Indicator: TA98, Metabolic Activation: NONE, Method: PREINCUBATION) is on record?
A: active; positive

Q: ClC/C=C\CCl was tested. Which mutagenic call (Test System: AMES SALMONELLA TYPHIMURIUM, Strain/Indicator: TA98, Metabolic Activation: HAMSTER, LIVER, S-9, AROCLOR 1254 (10%), Method: STANDARD PLATE) did it give?
A: active; positive

Q: And the mutagenic call (Test System: AMES SALMONELLA TYPHIMURIUM, Strain/Indicator: TA100, Metabolic Activation: HAMSTER, LIVER, S-9, AROCLOR 1254 (10%), Method: STANDARD PLATE)?
A: active; positive

Q: And the mutagenic call [3]?
A: active; positive

Q: What about the mutagenic call (Test System: AMES SALMONELLA TYPHIMURIUM, Strain/Indicator: TA100, Metabolic Activation: RAT, LIVER, S-9, AROCLOR 1254 (10%), Method: STANDARD PLATE) of the same molecule?
A: active; positive

Q: And the mutagenic call (Test System: MOUSE LYMPHOMA, Strain/Indicator: L5178Y (TK+/TK-), Metabolic Activation: NONE, Method: SUSPENSION/PLATE)?
A: active; positive. reevaluation of results: positive

Q: And the mutagenic call (Test System: MOUSE LYMPHOMA, Strain/Indicator: L5178Y (TK+/TK-), Metabolic Activation: RAT, LIVER, S-9, AROCLOR 1254, Method: SUSPENSION/PLATE)?
A: active; positive. reevaluation of results: positive

Q: COC(=O)Nc1nc2ccc(OS(=O)(=O)c3ccc(F)cc3)cc2[nH]1 was tested. Which mutagenic call [1] did it give?
A: inactive; negative

Q: What about the mutagenic call [2] of the same molecule?
A: inactive; negative

Q: And the mutagenic call [3]?
A: inactive; negative

Q: And the mutagenic call [4]?
A: inactive; negative

Q: What about the mutagenic call [5] of the same molecule?
A: inactive; negative

Q: And the mutagenic call [6]?
A: inactive; negative

Q: And the mutagenic call [11]?
A: inactive; negative

Q: What about the mutagenic call [12] of the same molecule?
A: inactive; negative

Q: And the mutagenic call [13]?
A: inactive; negative

Q: What about the mutagenic call [14] of the same molecule?
A: inactive; negative

Q: What about the mutagenic call (Test System: E. COLI, Strain/Indicator: WP2 UVRA (PKM101), Metabolic Activation: NONE, Method: STANDARD PLATE) of the same molecule?
A: inactive; negative

Q: And the mutagenic call (Test System: E. COLI, Strain/Indicator: WP2 UVRA (PKM101), Metabolic Activation: RAT, LIVER, S-9, AROCLOR 1254, Method: STANDARD PLATE)?
A: inactive; negative

Q: What about the mutagenic call [9] of the same molecule?
A: inactive; negative

Q: And the mutagenic call [10]?
A: inactive; negative

Q: Which mutagenic call (Test System: AMES SALMONELLA TYPHIMURIUM, Strain/Indicator: TM677, Metabolic Activation: NONE, Method: PREINCUBATION) does the source give for CC(=O)OC[C@@]1(O)CC23CC[C@@H]4c5ccoc5CC[C@@]4(C)[C@@H]2CC[C@@H]1C3 here?
A: inactive; negative

Q: What about the mutagenic call (Test System: AMES SALMONELLA TYPHIMURIUM, Strain/Indicator: TM677, Metabolic Activation: RAT, LIVER, S-9, AROCLOR 1254, Method: PREINCUBATION) of the same molecule?
A: inactive; negative

Q: How did the mutagenic call (Test System: AMES SALMONELLA TYPHIMURIUM, Strain/Indicator: TA97, Metabolic Activation: NONE, Method: STANDARD PLATE) turn out when CN=C1C=CC(=C(c2ccc(N(C)C)cc2)c2ccc(N(C)C)cc2)C=C1 was run?
A: inactive; negative

Q: And the mutagenic call (Test System: AMES SALMONELLA TYPHIMURIUM, Strain/Indicator: TA97, Metabolic Activation: RAT, LIVER, S-9, AROCLOR 1254, Method: STANDARD PLATE)?
A: inactive; negative

Q: And the mutagenic call [1]?
A: inactive; negative

Q: What about the mutagenic call [2] of the same molecule?
A: inactive; negative

Q: And the mutagenic call [3]?
A: inactive; negative

Q: And the mutagenic call [4]?
A: inactive; negative

Q: And the mutagenic call (Test System: AMES SALMONELLA TYPHIMURIUM, Strain/Indicator: TA104, Metabolic Activation: NONE, Method: STANDARD PLATE)?
A: inactive; negative

Q: What about the mutagenic call (Test System: AMES SALMONELLA TYPHIMURIUM, Strain/Indicator: TA104, Metabolic Activation: RAT, LIVER, S-9, AROCLOR 1254, Method: STANDARD PLATE) of the same molecule?
A: inactive; negative

Q: What does the source list for CC1(C)CO1?
A: mutagenic call (Test System: AMES SALMONELLA TYPHIMURIUM, Strain/Indicator: TA100, Metabolic Activation: NONE, Method: FLASK ASSAY): active; positive; mutagenic call (Test System: AMES SALMONELLA TYPHIMURIUM, Strain/Indicator: TA100, Metabolic Activation: NONE, Method: FLASK VAPORIZATION): active; positive; mutagenic call (Test System: AMES SALMONELLA TYPHIMURIUM, Strain/Indicator: TA100, Metabolic Activation: RAT, LIVER, S-9, AROCLOR 1254, Method: FLASK ASSAY): active; positive; mutagenic call (Test System: AMES SALMONELLA TYPHIMURIUM, Strain/Indicator: TA100, Metabolic Activation: RAT, LIVER, S-9, AROCLOR 1254, Method: FLASK VAPORIZATION): active; positive; mutagenic call (Test System: AMES SALMONELLA TYPHIMURIUM, Strain/Indicator: TA102, Metabolic Activation: NONE, Method: FLASK ASSAY): active; positive; mutagenic call (Test System: AMES SALMONELLA TYPHIMURIUM, Strain/Indicator: TA102, Metabolic Activation: RAT, LIVER, S-9, AROCLOR 1254, Method: FLASK ASSAY): active; positive; mutagenic call (Test System: AMES SALMONELLA TYPHIMURIUM, Strain/Indicator: TA1535, Metabolic Activation: NONE, Method: FLASK ASSAY): active; positive; mutagenic call (Test System: AMES SALMONELLA TYPHIMURIUM, Strain/Indicator: TA1535, Metabolic Activation: NONE, Method: FLASK VAPORIZATION): active; positive; mutagenic call (Test System: AMES SALMONELLA TYPHIMURIUM, Strain/Indicator: TA1535, Metabolic Activation: RAT, LIVER, S-9, AROCLOR 1254, Method: FLASK ASSAY): active; positive; mutagenic call (Test System: AMES SALMONELLA TYPHIMURIUM, Strain/Indicator: TA1535, Metabolic Activation: RAT, LIVER, S-9, AROCLOR 1254, Method: FLASK VAPORIZATION): active; positive
